The target of experiment [1] is T1, PI3Kγ (Homo sapiens, UniProt P48736).
T1 construct: His tag (pFastbac HTb vector) (N); FLAG (N); made in house; host or cells: Sf21 insect cells (baculovirus)
Kind of experiment: Biochemical assay using 200 μM ATP, Gamma.

The target in experiment [2] is T2, PI3Kδ (Homo sapiens, UniProt O00329, S253N). Kind of experiment: Biochemical assay using 200 μM ATP, Delta.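 Also: radiometric filter-binding assay: PI3Kδ transfers ³²P from γ-[³²P]ATP onto PIP2/PS liposomes, counted by scintillation, enzyme-only wells as positive control, no-enzyme wells as background.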
Experiment [3] deals with T1, PI3Kγ. Kind of experiment: Biochemical assay of PI3K potency and selectivity using 20 μM ATP, Gamma. As to conditions: for Gamma/Delta Ratio: ratio of IC50 values.
In experiment [4] the target is T3, PI3Kβ (Homo sapiens, UniProt P42338).
T3 construct: His tag (pFastbac HTa vector) (N); FLAG (N); made in house; host or cells: Sf21 insect cells (baculovirus)
Kind of experiment: Biochemical assay of PI3K potency and selectivity using 20 μM ATP, Beta. As to conditions: for Beta/Delta Ratio / remaining activity at 100 µM: 20 μM ATP; for Beta/Delta Ratio: ratio of IC50 values, > = hypothetical ratio with 100 μM substituted for the missing IC50; for remaining activity at 100 µM: read-out: Beta: percent activity remaining at 100 μM, 100 μM compound did not inhibit by at least 50%. An outline of the steps:
(§1)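 Radioactive phosphate transfer from γ-[32P]ATP onto PIP2/PS liposomes was measured in 20 mM HEPES, pH 7.4, at 20 μM ATP. The 3× substrate stock contained […] and 6 μM PIP2/PS.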

Experiment [5] has as its target T3, PI3Kβ. Kind of experiment: Biochemical assay using 200 μM ATP, Beta.
For a further experiment, the system named is T cell proliferation. Kind of experiment: Stimulated T cell proliferation (Mouse TCE Stim, Table 4). As to conditions: stimulated T cell proliferation, read-out: Mouse TCE Stim (EC50). Type of experiment: cell-based.
The subject of the next experiment is human neutrophils. Kind of experiment: Elastase exocytosis from neutrophils (fMLP-induced). Type of experiment: cell-based. As to conditions: for EC50: neutrophil (PMN) elastase release. The method in brief:
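Human blood neutrophils (Ficoll-Hypaque) treated with compound or DMSO, then stimulated 90 min at 37 °C with 1 μM fMLP plus 0.01 mg/mL cytochalasin B, 1.0 μM NaN3 and 5 μg/mL L-methionine. Supernatant elastase read at 410 nm over 2 h on MeO-suc-AAPV-pNA, normalized to uninhibited; EC50 in μM.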

Experiment [6] has as its target T2, PI3Kδ. Briefly: Biochemical assay of PI3K potency and selectivity using 20 μM ATP, Delta. The arrangement: His tag (pFastbac HTb vector) (N); FLAG; made in house; host or cells: Sf21 insect cells (baculovirus). The method in brief:
as §1

Experiment [7] has as its system Murine splenocytes (Balb/c). Kind of experiment: B cell proliferation in response to cell surface IgM stimulation. The experiment is classed as cell-based. As to conditions: Mus musculus, Splenocyte; for EC50: stimulated B cell proliferation, read-out: Mouse BCR Stim (EC50). The method in brief:
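Balb/c splenocytes (2×10^5/well, 10% FBS/RPMI) preincubated 30-60 min with inhibitor, then stimulated with goat F(ab′)2 anti-mouse IgM μ-chain at 25 μg/mL final. Cultured 3 days at 37° C., [^3H]-thymidine pulsed for final 4 h; incorporation counted as CPM. Values are EC50 (μM).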

The mark [8] stands for this setting: 20 μM ATP, read-out: Delta IC50.

Consider 4 molecules from patent US20200061062A1, “INHIBITORS OF HUMAN PHOSPHATIDYLINOSITOL 3-KINASE DELTA” (ICOS Corporation, priority 2000, published 2020).

The remaining activity is the signal under treatment as a percentage of the control signal. The EC50 is the concentration at which the effect is half-maximal.

T2 sequence (O00329 whole entry S253N): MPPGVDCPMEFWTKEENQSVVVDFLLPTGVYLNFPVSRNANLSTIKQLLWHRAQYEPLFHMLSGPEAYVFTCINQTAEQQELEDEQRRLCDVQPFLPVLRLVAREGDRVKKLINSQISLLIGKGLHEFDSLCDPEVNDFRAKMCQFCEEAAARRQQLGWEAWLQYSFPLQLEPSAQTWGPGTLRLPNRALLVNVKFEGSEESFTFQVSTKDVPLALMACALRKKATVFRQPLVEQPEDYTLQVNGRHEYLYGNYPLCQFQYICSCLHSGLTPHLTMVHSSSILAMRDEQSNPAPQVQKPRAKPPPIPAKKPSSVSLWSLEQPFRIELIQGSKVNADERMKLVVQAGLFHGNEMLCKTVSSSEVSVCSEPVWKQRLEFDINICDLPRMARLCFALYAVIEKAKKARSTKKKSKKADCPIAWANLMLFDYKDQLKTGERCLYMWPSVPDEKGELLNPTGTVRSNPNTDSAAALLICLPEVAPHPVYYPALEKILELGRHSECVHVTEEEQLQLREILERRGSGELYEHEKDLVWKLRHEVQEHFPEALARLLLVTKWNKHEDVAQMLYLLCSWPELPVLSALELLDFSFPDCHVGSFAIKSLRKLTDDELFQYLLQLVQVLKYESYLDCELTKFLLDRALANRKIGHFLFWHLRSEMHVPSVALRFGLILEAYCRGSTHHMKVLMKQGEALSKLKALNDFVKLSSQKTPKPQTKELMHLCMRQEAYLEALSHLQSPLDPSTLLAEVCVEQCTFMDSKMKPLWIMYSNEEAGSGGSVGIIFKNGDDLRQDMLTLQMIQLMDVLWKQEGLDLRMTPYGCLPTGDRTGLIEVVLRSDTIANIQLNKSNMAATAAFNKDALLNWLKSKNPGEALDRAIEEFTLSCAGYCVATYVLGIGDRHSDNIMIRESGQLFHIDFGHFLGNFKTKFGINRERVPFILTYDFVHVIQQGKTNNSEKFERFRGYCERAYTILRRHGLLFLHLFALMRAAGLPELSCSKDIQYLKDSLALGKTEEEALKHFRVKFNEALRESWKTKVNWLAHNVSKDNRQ
T2 sequence (P27986 whole entry partner): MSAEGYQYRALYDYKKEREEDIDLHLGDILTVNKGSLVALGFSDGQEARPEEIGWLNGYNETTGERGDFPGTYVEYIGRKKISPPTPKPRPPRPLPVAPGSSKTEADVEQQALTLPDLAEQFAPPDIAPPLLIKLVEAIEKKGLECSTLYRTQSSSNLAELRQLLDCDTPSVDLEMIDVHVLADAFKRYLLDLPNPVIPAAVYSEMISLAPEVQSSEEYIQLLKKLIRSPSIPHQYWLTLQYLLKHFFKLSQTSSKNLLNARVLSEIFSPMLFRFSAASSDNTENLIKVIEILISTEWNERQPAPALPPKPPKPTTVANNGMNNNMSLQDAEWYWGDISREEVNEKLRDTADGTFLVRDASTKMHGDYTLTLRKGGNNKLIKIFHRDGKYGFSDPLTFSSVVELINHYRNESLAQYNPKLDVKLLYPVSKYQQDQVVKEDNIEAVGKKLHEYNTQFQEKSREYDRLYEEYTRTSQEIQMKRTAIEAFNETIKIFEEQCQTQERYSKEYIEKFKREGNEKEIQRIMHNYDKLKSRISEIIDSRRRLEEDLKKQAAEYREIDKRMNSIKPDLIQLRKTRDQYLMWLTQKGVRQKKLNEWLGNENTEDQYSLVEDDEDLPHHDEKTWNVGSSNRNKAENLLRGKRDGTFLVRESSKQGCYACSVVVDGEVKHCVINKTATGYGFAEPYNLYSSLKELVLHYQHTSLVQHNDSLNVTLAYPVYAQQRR
T1 sequence (P48736 whole entry): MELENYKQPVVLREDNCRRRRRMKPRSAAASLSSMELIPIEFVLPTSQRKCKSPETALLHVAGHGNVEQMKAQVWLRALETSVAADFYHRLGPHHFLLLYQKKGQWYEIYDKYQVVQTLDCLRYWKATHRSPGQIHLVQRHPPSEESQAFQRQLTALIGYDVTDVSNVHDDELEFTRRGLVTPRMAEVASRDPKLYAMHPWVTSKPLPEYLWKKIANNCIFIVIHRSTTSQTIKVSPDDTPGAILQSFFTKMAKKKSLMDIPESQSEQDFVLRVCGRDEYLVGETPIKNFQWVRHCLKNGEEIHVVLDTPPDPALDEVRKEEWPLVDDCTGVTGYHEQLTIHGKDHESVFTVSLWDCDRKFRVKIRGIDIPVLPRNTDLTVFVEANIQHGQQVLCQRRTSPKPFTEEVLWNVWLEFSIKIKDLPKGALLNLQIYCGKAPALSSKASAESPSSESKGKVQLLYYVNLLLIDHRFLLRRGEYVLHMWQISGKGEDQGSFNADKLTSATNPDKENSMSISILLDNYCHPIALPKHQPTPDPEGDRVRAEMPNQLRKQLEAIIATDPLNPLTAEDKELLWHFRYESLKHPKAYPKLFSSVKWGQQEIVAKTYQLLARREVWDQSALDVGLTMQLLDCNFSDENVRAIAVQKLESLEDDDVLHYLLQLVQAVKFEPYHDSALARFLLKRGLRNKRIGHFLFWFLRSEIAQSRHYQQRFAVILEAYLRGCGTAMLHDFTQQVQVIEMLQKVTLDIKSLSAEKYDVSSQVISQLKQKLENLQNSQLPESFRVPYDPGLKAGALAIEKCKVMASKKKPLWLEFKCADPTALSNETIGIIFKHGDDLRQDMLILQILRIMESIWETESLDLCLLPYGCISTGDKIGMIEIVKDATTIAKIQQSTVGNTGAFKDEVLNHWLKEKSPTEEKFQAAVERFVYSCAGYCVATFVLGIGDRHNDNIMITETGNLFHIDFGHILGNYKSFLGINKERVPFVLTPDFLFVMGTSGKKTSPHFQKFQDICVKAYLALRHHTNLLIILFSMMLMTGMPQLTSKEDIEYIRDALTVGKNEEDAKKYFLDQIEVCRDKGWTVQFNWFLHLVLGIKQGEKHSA
T3 sequence (P42338 whole entry): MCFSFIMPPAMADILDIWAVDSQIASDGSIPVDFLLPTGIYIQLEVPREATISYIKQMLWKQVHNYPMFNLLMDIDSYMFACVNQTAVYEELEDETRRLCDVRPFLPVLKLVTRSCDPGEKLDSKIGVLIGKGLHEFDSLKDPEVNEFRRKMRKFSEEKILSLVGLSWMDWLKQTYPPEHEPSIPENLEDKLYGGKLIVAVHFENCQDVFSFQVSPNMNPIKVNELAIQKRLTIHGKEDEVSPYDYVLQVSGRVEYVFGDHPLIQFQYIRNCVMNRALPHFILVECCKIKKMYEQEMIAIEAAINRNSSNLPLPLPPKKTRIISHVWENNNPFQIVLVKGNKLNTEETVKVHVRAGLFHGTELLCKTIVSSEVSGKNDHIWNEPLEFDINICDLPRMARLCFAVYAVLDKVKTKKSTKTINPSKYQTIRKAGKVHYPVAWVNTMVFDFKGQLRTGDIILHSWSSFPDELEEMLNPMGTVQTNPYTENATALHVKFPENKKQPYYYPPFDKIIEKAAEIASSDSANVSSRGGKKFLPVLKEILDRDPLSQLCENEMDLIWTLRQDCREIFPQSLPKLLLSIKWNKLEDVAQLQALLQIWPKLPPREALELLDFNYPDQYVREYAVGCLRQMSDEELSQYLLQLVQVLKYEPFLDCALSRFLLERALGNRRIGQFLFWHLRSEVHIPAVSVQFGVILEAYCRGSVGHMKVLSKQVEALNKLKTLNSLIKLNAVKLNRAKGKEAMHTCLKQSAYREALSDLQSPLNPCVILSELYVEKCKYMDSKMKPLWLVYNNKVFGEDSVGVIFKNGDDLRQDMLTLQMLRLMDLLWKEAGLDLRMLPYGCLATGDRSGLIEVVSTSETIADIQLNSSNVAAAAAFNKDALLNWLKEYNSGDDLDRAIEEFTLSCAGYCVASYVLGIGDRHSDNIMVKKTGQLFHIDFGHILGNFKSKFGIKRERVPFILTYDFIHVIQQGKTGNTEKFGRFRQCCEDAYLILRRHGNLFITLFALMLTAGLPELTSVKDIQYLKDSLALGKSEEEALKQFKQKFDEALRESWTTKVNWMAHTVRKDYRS
T3 sequence (P27986 whole entry partner): as the sequence (P27986 whole entry partner) above

With `O=c1c2ccccc2nc(CSc2ncnc3[nH]ncc23)n1-c1ccccc1Cl` [Compound D-999, 3-(2-Chlorophenyl)-2-(1H-pyrazolo[3,4-d]pyrimidin-4-ylsulfanylmethyl)-3H-quinazolin-4-one, reference compound], the “Gamma/Delta Ratio” value on PI3Kγ [1] amounted to 1; on PI3Kγ [3] it was 1.3. For the same molecule, the IC50 against PI3Kγ [1] came out at 90000 nM; at PI3Kδ [2] it was 75000 nM; against PI3Kγ [3], 60000 nM; on PI3Kδ [6] (setting [8]) it was 47000 nM. The “Beta/Delta Ratio” value is recorded as 2.1 at PI3Kβ [4] and 2 at PI3Kβ [5]. Moreover, on PI3Kβ [4], the remaining activity at 100 µM is 71%. For the same molecule, the values for the EC50 (with T cell proliferation; in the experiment with human neutrophils; in experiment [7]) were 5900 nM, above 20000 nM and 3100 ± 700 nM, respectively.

`O=c1c2c(F)cccc2nc(CSc2ncnc3[nH]cnc23)n1-c1ccccc1Cl` [Compound D-015, 3-(2-Chlorophenyl)-5-fluoro-2-(9H-purin-6-ylsulfanylmethyl)-3H-quinazolin-4-one]: the entries for the “Gamma/Delta Ratio” value on PI3Kγ [1] and at PI3Kγ [3] were 160 and 17, respectively. Also, the IC50 at PI3Kδ [2] turned out to be 1100 ± 500 nM; against PI3Kγ [3], 3600 nM; at PI3Kδ [6] (setting [8]), 210 nM. Further, the results for the “Beta/Delta Ratio” value on PI3Kβ [4] and at PI3Kβ [5] were above 480 and 154, respectively. Moreover, at PI3Kβ [4], the remaining activity at 100 µM was 69%. Besides, the EC50 with T cell proliferation was 1800 nM; with human neutrophils it was 1300 ± 400 nM; in experiment [7], 1200 ± 200 nM.

With `O=c1c2ccccc2nc(CSc2ncnc3[nH]cnc23)n1-c1ccccc1Cl` [Compound D-000, 3-(2-chlorophenyl)-2-(9H-purin-6-ylsulfanylmethyl)-3H-quinazolin-4-one], the figures for the “Gamma/Delta Ratio” value on PI3Kγ [1] and at PI3Kγ [3] were 18 and 23, respectively. In addition, the IC50 at PI3Kγ [1] was 35000 ± 35000 nM; against PI3Kδ [2], 2000 ± 1000 nM; against PI3Kγ [3] it was 7700 nM; on PI3Kβ [4] (Example 2 assay conditions, limit of 100 μM compound, read-out: IC50, β isoform of PI3K (FIG. 1)), above 100000 nM; in the experiment with human neutrophils (Neutrophil, 1.5 h, 1 μM fMLP, 90 min, FIG. 4, read-out: Concentration of half-maximal inhibition of fMLP-induced elastase exocytosis) it was 2000 to 3000 nM; at PI3Kδ [6] (setting [8]), 330 nM. Further, the IC50 on PI3Kδ [6] (Example 2 assay conditions, read-out: IC50, δ isoform of PI3K (FIG. 1)) was around 300 nM; in experiment [7] (anti-IgM 25 μg/mL, 3 days, [3H]-thymidine, FIG. 8, read-out: Concentration reducing anti-IgM-stimulated B cell proliferation to its half-maximal value), around 1000 nM. The figures for the “Beta/Delta Ratio” value on PI3Kβ [4] and on PI3Kβ [5] were above 302 and 84, respectively. Besides, the remaining activity at 100 µM on PI3Kβ [4] came out at 74%. The EC50 with T cell proliferation came out at 5500 ± 4000 nM; in the experiment with human neutrophils it was 2200 ± 2000 nM; in experiment [7] it was 900 ± 400 nM.

Take `O=c1c2c(Cl)cccc2nc(CSc2ncnc3[nH]cnc23)n1-c1ccccc1Cl` [Compound D-025, 5-Chloro-3-(2-chlorophenyl)-2-(9H-purin-6-ylsulfanylmethyl)-3H-quinazolin-4-one]: the “Gamma/Delta Ratio” value on PI3Kγ [1] is given as 24; on PI3Kγ [3] it was 14. The IC50 against PI3Kγ [1] is 7800 ± 3000 nM; against PI3Kδ [2], 320 ± 300 nM; against PI3Kγ [3], 1500 nM; on PI3Kδ [6] (setting [8]) it was 110 nM. Moreover, the “Beta/Delta Ratio” value at PI3Kβ [4] is reported as above 909. Besides, the remaining activity at 100 µM at PI3Kβ [4] was determined as 61%. For the same molecule, the half-maximal effective concentration (EC50) was 4400 ± 600 nM in the experiment with T cell proliferation, 300 ± 200 nM with human neutrophils and 300 ± 100 nM in [7].
